Reference: paper PMC6272669, “Protein Tyrosine Phosphatase 1B Inhibitors from the Roots of Cudrania tricuspidata” (Molecules, 2015)

Target: T1, PTP1B (human, recombinant) (Homo sapiens, UniProt P18031)
T1 construct: purchased ATGen Co., Ltd. (Gyeonggi-do, Korea)
T1 sequence (P18031 1-435): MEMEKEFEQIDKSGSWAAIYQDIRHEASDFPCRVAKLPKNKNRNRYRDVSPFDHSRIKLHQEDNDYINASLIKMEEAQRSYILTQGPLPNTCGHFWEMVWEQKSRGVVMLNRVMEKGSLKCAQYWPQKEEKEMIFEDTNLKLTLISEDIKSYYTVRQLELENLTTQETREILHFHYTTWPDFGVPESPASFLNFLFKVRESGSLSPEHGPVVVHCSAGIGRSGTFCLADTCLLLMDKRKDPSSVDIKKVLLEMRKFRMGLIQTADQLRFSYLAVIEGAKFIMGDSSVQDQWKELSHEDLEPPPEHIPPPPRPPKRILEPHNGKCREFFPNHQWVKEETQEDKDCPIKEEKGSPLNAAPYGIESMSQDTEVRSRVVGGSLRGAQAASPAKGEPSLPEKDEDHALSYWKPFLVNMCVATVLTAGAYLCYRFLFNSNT
Assay: PTP1B inhibitory activity assay (p-NPP hydrolysis)
Format: biochemical
Conditions: 1 mM p-NPP substrate, pH 6.0, 37.5 °C, 30 min; mean ± SD of triplicate experiments; read-out: PTP1B Inhibitory Effects (IC50 Values)
Description: On the basis of these findings, we evaluated the inhibitory effects of the 16 isolated compounds on PTP1B activity. PTP1B enzyme (human, recombinant) was purchased from ATGen Co., Ltd. (Gyeonggi-do, Korea), and its activity was measured using p-nitrophenyl phosphate (p-NPP). The reaction mixture consisted of 50 mM Bis-Tris (pH 6.0), 2.0 mM EDTA, 5.0 mM dithiothreitol (DTT), PTP1B (0.04 μg), and 1.0 mM p-NPP, with or without test compounds. After incubation at 37.5 °C for 30 min, the reaction was stopped via the addition of 10 N NaOH. The production of p-nitrophenol (p-NP) was evaluated by measuring the absorbance at 405 nm. The non-enzymatic hydrolysis of 1.0 mM p-NPP was corrected by measuring the increase in absorbance at 405 nm in the absence of PTP1B enzyme.
PTP1B (human, recombinant) was purchased from ATGen Co., Ltd. (Gyeonggi-do, Korea). The enzyme activity was measured in a reaction mixture containing 1 mM p-NPP in 50 mM Bis-Tris (pH 6.0), 2.0 mM EDTA, and 5.0 mM dithiothreitol (DTT). The reaction mixture was placed in a 37.5 °C for 30 min, followed by termination of the reaction with the addition of 10 N NaOH. The amount of p-NP produced was estimated by measuring the increase in absorbance at 405 nm. The non-enzymatic hydrolysis of 1.0 mM p-NPP was corrected by measuring the increase in absorbance at 405 nm obtained in the absence of PTP1B enzyme. Inhibition kinetics studies were performed in the presence or absence of compounds 1 and 13 with different concentrations of p-NPP. Data were fitted by nonlinear regression analysis according to a Michaelis-Menten kinetic model using GraphPad Prism 5.01.

Row | Structure (SMILES) | IC50 [µM]
1 | C=CC(C)(C)c1c2c(c3oc4cc(O)c(O)cc4c(=O)c3c1O)C=CC(C)(C)O2 [Compound 1, cudratricusxanthone N] | 2 ± 0.4
2 | C=CC(C)(C)c1c(OC)cc2oc3cc(O)c(O)cc3c(=O)c2c1O [Compound 2, 1,6,7-trihydroxy-2-(1,1-dimethyl-2-propenyl)-3-methoxyxanthone] | 3 ± 0.6
3 | C=CC(C)(C)c1c(O)cc(O)c2c(=O)c3cc(O)c(O)cc3oc12 [Compound 3, cudratricusxanthone L] | 3 ± 0.3
4 | C=CC(C)(C)c1c(O)cc(O)c2c(=O)c3c(CC=C(C)C)c(O)c(O)cc3oc12 [Compound 4, cudratricusxanthone A] | 4.3 ± 0.6
5 | C=CC(C)(C)c1c(O)cc2oc3c(CC=C(C)C)c(O)c(O)cc3c(=O)c2c1O [Compound 5, cudraxanthone L] | 4.6 ± 0.8
6 | C=CC(C)(C)c1c(O)c(CC=C(C)C)c2oc3cc(O)c(O)cc3c(=O)c2c1O [Compound 6, macluraxanthone B] | 3.8 ± 0.5
7 | C=CC(C)(C)c1c(OC)c(CC=C(C)C)c2oc3cc(O)c(O)cc3c(=O)c2c1O [Compound 7, cudracuspixanthone A] | 1.9 ± 0.4
8 | CC(C)=CCc1c2c(c(O)c3c(=O)c4cc(O)c(O)cc4oc13)C(C)(C)C(C)O2 (stereo not drawn) [Compound 8] | 2.8 ± 0.6
9 | CC(C)=CCc1c(O)c(O)cc2c(=O)c3c(O)c4c(cc3oc12)OC(C)C4(C)C (stereo not drawn) [Compound 9, cudraxanthone M] | 3.5 ± 0.7

Next, values leading:

Row | IC50 [µM] | Structure (SMILES)
10 | 5.7 ± 1.5 | CC(C)=CCc1cc([C@@H]2CC(=O)c3c(cc(O)c(CC=C(C)C)c3O)O2)c(O)cc1O [Compound 13, cudraflavanone D]
11 | 12.3 ± 2.2 | CC(C)=CCc1c(O)cc2c(c1O)C(=O)C[C@@H](c1cc3c(cc1O)OC(C)(C)C=C3)O2 [Compound 14, euchrestaflavanone C]
12 | 9.4 ± 2.9 | CC(C)=CCc1c(O)cc2oc(-c3ccc(O)cc3O)c(CC=C(C)C)c(=O)c2c1O [Compound 15, cudraflavone C]
13 | 13.6 ± 3.3 | CC(C)=CCc1c(-c2ccc(O)cc2O)oc2c(CC=C(C)C)c(O)cc(O)c2c1=O [Compound 16, kuwanon C]

Target: T1, PTP1B (human, recombinant)
Assay: Enzyme kinetic study of PTP1B inhibition (Lineweaver-Burk plots)
Format: biochemical
Conditions: Lineweaver-Burk plots: reduction in Vmax, no change in Km
Description: To elucidate the characteristics of PTP1B inhibition by the prenylated xanthones and flavonoids, compounds 1 and 13 were selected for an enzyme kinetic study. The kinetic studies were conducted using different concentrations of compounds 1, 13, and p-NPP. The initial rate was determined on the basis of the rate of increase in absorbance at 405 nm. The Michaelis–Menten constant (Km) and maximal velocity (Vmax) of PTP1B were determined by Lineweaver–Burk Plot analysis for competitive inhibition and the intercept on the vertical axis for noncompetitive inhibition. […]
Figure 2 Lineweaver-Burk plots for inhibition of PTP1B-catalyzed hydrolysis of p-NPP by compounds 1 (A) and 13 (B). Data are expressed as mean initial velocity for triplicate experiments (n = 3) at each substrate concentration.
PTP1B (human, recombinant) was purchased from ATGen Co., Ltd. (Gyeonggi-do, Korea). The enzyme activity was measured in a reaction mixture containing 1 mM p-NPP in 50 mM Bis-Tris (pH 6.0), 2.0 mM EDTA, and 5.0 mM dithiothreitol (DTT). […] The amount of p-NP produced was estimated by measuring the increase in absorbance at 405 nm. The non-enzymatic hydrolysis of 1.0 mM p-NPP was corrected by measuring the increase in absorbance at 405 nm obtained in the absence of PTP1B enzyme. […]

Row | Mode of PTP1B inhibition | Structure (SMILES)
14 | noncompetitive | C=CC(C)(C)c1c2c(c3oc4cc(O)c(O)cc4c(=O)c3c1O)C=CC(C)(C)O2 [Compound 1, cudratricusxanthone N]
15 | noncompetitive | CC(C)=CCc1cc([C@@H]2CC(=O)c3c(cc(O)c(CC=C(C)C)c3O)O2)c(O)cc1O [Compound 13, cudraflavanone D]
